Data from patent publication USRE37770E1, “Treatment of skin conditions by use of PPARα activators” (The Regents of the University of California, priority 1997, dated 2002).

Columns and labels:
transglutaminase protein = test: Transglutaminase protein level in keratinocytes by Western blotting; format: cell-based, Human; conditions: for TG'ase protein level relative to the control: low calcium (0.03 mM), 24 hours
Protocol: Protein concentration was assessed by protein electrophoresis and Western blotting. Cells were lysed is 2% SDS and the lysate sonicated. Protein determinations were made by use of a Bicinchoninic add protein assay (Pierce Chemical Company, Rockford, Ill. USA). Following protein determination, equal amounts at protein (50 μg) were separated by electrophoresis an 7.5% polyacrylamide gels and electroblotted onto polyvinylidene […] membranes (0.2-μ, obtained from Bio-Rad Laboratories Hercules, Calif., USA). Involucrin protein was detected by incubation over-night at 4° C. C. with a polyclonal rabbit anti-human involucrin antibody (1:1000 dilution). The involucrin-specific bands on the autoradiograms were quantitated by densitometry by densitometry. Transglutaminase protein expression was measured in a similar […], using stacking, sample and running buffers containing 4 M urea, and the gels following electrophoresis were washed in 4 M urea, 25 mM TRIS-HCl, pH 7.4, 7.5 mM NaCl, 0.1 mM dithiothreitol (DTT), and 2 mM ethylenediamine tetraacetic acid for 90 minutes prior to electoblotting, allowing the transglutaminase to be detected by antibody. Specific bands on the autoradiograms were quantified by densitometry. Levels of involucrin and transglutaminase protein were measured in keratinocytes incubated in low calcium (0.03 mM) and treated with the test compounds for 24 hours. The are shown in the bar graph of FIG. 17a, where the test compounds are compared with the vehicle alone (control) and cholesterol, using the same bar indications as in FIGS 14 through 16. […] Cholesterol had no effect.

involucrin mRNA [1] = test: Involucrin mRNA in keratinocytes by Northern Blot; format: cell-based, Human; conditions: for involucrin (INV) mRNA level compared to the vehicle alone: low calcium (0.03 mM), 24 hours, 10 μM
Protocol: (§1) Human keratinocyte cells were incubated in culture containing calcium at a concentration of 0.03 mM Ca^++ (a level that is too low to induce differentiation). Also included in the culture medium were clofibrate at 400 μM or ETYA at 10 μM and 20 μM, while separate cell cultures were maintained as controls with neither clofibrate nor ETYA. The production of mRNA for both involucrin and transglutaminase was measured at intervals over a 48-hour time period (0, 6, 12, 24, and 48 hours) by Northern Blot analysis. In each case, the lighter bars represent the control cells and the darker bars the cells incubated in the clofibrate-containing medium. The degree of mRNA generated is expressed as a percent of the control at zero hours.
(§2) Human epidermis was isolated from newborn foreskins and keratinocytes were plated in serum-free keratinocyte growth medium (“KGM”; Clonetics, San Diego, Calif. USA), using conventional techniques. Cells were treated with either the test compounds in vehicle or vehicle alone (<0.1% ethanol) for 24 or 48 hours. The test compounds were obtained from Sigma Chemical Co. (St. Louis. Mo. USA) and were stored as 15 mM stock solutions at −20° C. Mevalonate was solubilized in sterile water.
(§3) Total RNA was isolated by using TRIZOL (Sigma Chemical Co.), following the manufacturer's protocol. Ethanol-precipitate RNA pellets were suspended in sterile, diethylpyrocarbonate (DEPC)-treated water, and RNA was quantified by absorbance at 260 nm using the 260/280 nm ratio as an index of purity. RNA (15 μg per sample) was size fractionated through a 1% agarose gel containing 2.2 M formaldehyde. RNA integrity was visualized following acridine orange staining of the gel following electrophoresis. The RNA was transfered to a nylon membrane that was subsequently baked at 80° C. for 2 hours. Blots were hybridized with the appropriate ^32p-labeled probe overnight at 65° C. Washes were then performed in a solution containing 0.1% SSC and 0.1% sodium dedecyl sulfate (SDS) for 20 minutes at room temperature, followed by a 20-minute wash at 65° C. Autoradiography was performed at −70° C. Blots were probed with β-actin to confirm equal loading. Appropriate bands were quantified by densitometry.
(§4) Northern blot analyses were performed on keratinocytes maintained in low calcium (0.03 mM) and incubated for 24 hours in the presence of vehicle alone (<0.1% ethanol) or vehicle containing 25-hydroxycholesterol (10 μM), 22(R)-hydroxycholesterol (10 μM) cholesterol (10 μM), or mevalonate (500 μM) (individually). The mRNA levels of involucrin (“INV”) and transglutaminase (“TG'ase”) are shown in the bar graph of FIG. 14a, the INV indicated by clear bars and the TG'ase by shaded bars, both with error limits shown.

involucrin protein = test: Involucrin protein level in keratinocytes by Western Blot; format: cell-based, Human; conditions: for increase in INV protein: high calcium (1.2 mM), 15 μM; for INV protein level relative to the control: low calcium (0.03 mM), 24 hours
Protocol: Measurements of the level of the involucrin protein itself were performed in the culture medium by Western Blot. Various incubations were performed, in media containing clofibrate at concentrations ranging from 0 (vehicle only) to 400 μM and calcium ion at both 0.03 mM and 1.2 mM. The results are shown in FIG. 9a for tests with calcium ion at 0.03 mM, and in FIG. 9b for tests with calcium ion at 1.2 mM. In these figures, the protein contents are expressed as percents of the respective measurements taken from media incubated for the same period of time but in the absence of clofibrate.
The procedures of Example 8 were followed, and measurements were taken on the involucrin protein levels from cells incubated at various concentrations of farnesol and juvenile hormone III ranging from 0 (vehicle only) to 15 μM, in media containing 0.03 mM and 1.2 mM calcium ion, for 24 hours. The results are shown in FIG. 10 for farnesol and FIG. 11 for juvenile hormone III, in 0.03 mM Ca^++.
Protein concentration was assessed by protein electrophoresis and Western blotting. Cells were lysed is 2% SDS and the lysate sonicated. Protein determinations were made by use of a Bicinchoninic add protein assay (Pierce Chemical Company, Rockford, Ill. USA). Following protein determination, equal amounts at protein (50 μg) were separated by electrophoresis an 7.5% polyacrylamide gels and electroblotted onto polyvinylidene […] membranes (0.2-μ, obtained from Bio-Rad Laboratories Hercules, Calif., USA). Involucrin protein was detected by incubation over-night at 4° C. C. with a polyclonal rabbit anti-human involucrin antibody (1:1000 dilution). The involucrin-specific bands on the autoradiograms were quantitated by densitometry by densitometry. Transglutaminase protein expression was measured in a similar mmaner, using stacking, sample and running buffers containing 4 M urea, and the gels following electrophoresis were washed in 4 M urea, 25 mM TRIS-HCl, pH 7.4, 7.5 mM NaCl, 0.1 mM dithiothreitol (DTT), and 2 mM ethylenediamine tetraacetic acid for 90 minutes prior to electoblotting, allowing the transglutaminase to be detected by antibody. Specific bands on the autoradiograms were quantified by densitometry.

keratinocytes = test: Rate of DNA synthesis (3H-thymidine incorporation) in keratinocytes; format: cell-based, Human; conditions: 10 μM, 24 hours, low calcium (0.03 mM); 16-hour 3H-thymidine period
Protocol: The rate of DNA synthesis was determined by measuring the incorporation of ^3H-thymidine into cellular DNA after 16 hours of incubation with 2 μCi^3H-thymidine per mL of media (110 Ci/mmol methyl-1′,2′-^3H-thymidine (Amersham Laboratories, Arlington Heights, Ill. USA). The cells were then solubilized in 1N NaOH, and the radioactivity in the washed TCA precipitate was quantitated by scintillation spectroscopy.
Using the procedures set forth in the Materials and Methods section above, 25-hydroxycholesterol (10 μM) and 22(R)-hydroxycholesterol (10 μM, were compared with cholesterol (10 μM) and the vehicle alone control), with treatment for 24 hours under low calcium (0.03 mM) condition. The results are shown in the bar graph of FIG. 19.

transglutaminase mRNA [2] = test: Transglutaminase mRNA in keratinocytes by Northern Blot; format: cell-based, Human; conditions: for transglutaminase (TG'ase) mRNA level compared to the vehicle alone: low calcium (0.03 mM), 24 hours, 10 μM
Protocol: as §1, §2, §3, §4

[3] = system: Normal human keratinocytes; test: Cornified envelope formation (35S incorporation) in keratinocytes; format: cell-based; conditions: 10 μM, 48 hours
transglutaminase mRNA [4] = test: Transglutaminase mRNA in keratinocytes by Northern Blot; format: cell-based, Human; conditions: calcium 1.2 mM, 10 μM, 24 hours
involucrin mRNA [5] = test: Involucrin mRNA in keratinocytes by Northern Blot; format: cell-based, Human; conditions: calcium 1.2 mM, 10 μM, 24 hours
[6] = doses 0-15.0 μM, low calcium, FIG. 15

## CC(C)CC[C@@H](O)[C@@H](C)[C@H]1CC[C@H]2[C@@H]3CC=C4C[C@@H](O)CC[C@]4(C)[C@H]3CC[C@]12C [22(R)-hydroxycholesterol]
Transglutaminase protein; high calcium (1.2 mM), 5 μM
  increase in TG'ase protein level: 2.1 fold
Transglutaminase protein
  TG'ase protein level relative to the control: approximately 2.8 fold
Involucrin mRNA [1]; Homo sapiens, Keratinocyte, doses 0-15.0 μM, low calcium, FIG. 15, read-out: dosage of half-maximal effects on INV mRNA
  EC50: ~5 µM
Involucrin mRNA [1]; [6]
  dosage of maximal effects on INV mRNA: 10 to 15 µM
Involucrin mRNA [1]
  involucrin (INV) mRNA level compared to the vehicle alone: approximate twofold increase
Involucrin protein
  increase in INV protein: 2.8 fold
  INV protein level relative to the control: approximately 3.2 fold
keratinocytes
  rate of DNA synthesis: 42 % of control
Transglutaminase mRNA [2]; Homo sapiens, Keratinocyte, doses 0-15.0 μM, low calcium, FIG. 15, read-out: dosage of half-maximal effects on TG'ase mRNA
  EC50: ~5 µM
Transglutaminase mRNA [2]; [6]
  dosage of maximal effects on TG'ase mRNA: 10 to 15 µM
Transglutaminase mRNA [2]
  transglutaminase (TG'ase) mRNA level compared to the vehicle alone: approximate twofold increase
[3]; high calcium (1.2 mM)
  increase in cornified envelope (CE) formation: 2.1 fold
[3]; low calcium (0.03 mM)
  increase in cornified envelope (CE) formation: 1.3 fold

## CC(C)CCC[C@@H](C)[C@H]1CC[C@H]2[C@@H]3CC=C4C[C@@H](O)CC[C@]4(C)[C@H]3CC[C@]12C [cholesterol]
Transglutaminase protein
  TG'ase protein level relative to the control: had no effect
Transglutaminase mRNA [4]
  TG'ase mRNA level, induction: no effect
Involucrin mRNA [1]
  involucrin (INV) mRNA level compared to the vehicle alone: neither cholesterol (“chol”) nor mevalonate (“mev”) had any effect
Involucrin protein
  increase in INV protein: essentially no increase
  INV protein level relative to the control: had no effect
keratinocytes
  rate of DNA synthesis: 117 % of control
Involucrin mRNA [5]
  INV mRNA level, induction: no effect
Transglutaminase mRNA [2]
  transglutaminase (TG'ase) mRNA level compared to the vehicle alone: neither cholesterol (“chol”) nor mevalonate (“mev”) had any effect
[3]; high calcium (1.2 mM)
  increase in cornified envelope (CE) formation: no increase
[3]; low calcium (0.03 mM)
  increase in cornified envelope (CE) formation: no increase
